Reference: patent US20260355120A1, “"GOOD" BUFFER-BASED CATIONIC LIPIDS FOR NUCLEIC ACID DELIVERY” (SANOFI VACCINES US INC., priority 2023, published 2026)

Tested on: hEPO
Experiment: Delivery of hEPO mRNA by intramuscular administration of lipid nanoparticles; serum hEPO by ELISA
Format: in vivo, female BALB/cJ mice
Settings: single IM 0.1 μg/An hEPO mRNA LNP, lipid formulation 1 (N/P 4), MC3 and SM-102 in formulation 2 (N/P 3); for hEPO 6 Hr Mean: 6 h post injection; for hEPO 24 Hr Mean: 24 h post injection
Text: The lipid nanoparticles in the examples of the present invention were formulated using Process A of WO 2018/089801 (see, e.g., Example 1 and FIG. 1 of WO 2018/089801). Process A (“A”) relates to a conventional method of encapsulating mRNA by mixing mRNA with a mixture of lipids, without first pre-forming the lipids into lipid nanoparticles. In an exemplary process, an ethanolic solution of a mixture of lipids (cationic lipid, phosphatidylethanolamine, cholesterol, and polyethylene glycol-lipid) at a fixed lipid to mRNA ratio were combined with an aqueous buffered solution of target mRNA at an acidic pH under controlled conditions to yield a suspension of uniform LNPs. After ultrafiltration and diafiltration into a suitable diluent system, the resulting nanoparticle suspensions were diluted to final concentration, filtered, and stored frozen at −80 °C until use.
Lipid nanoparticle formulations of Table C were prepared by Process A. All of the lipid nanoparticle formulations comprised hEPO mRNA and the different lipids (Cationic Lipid: DMG-PEG2000: Cholesterol: DOPE/DSPC) in the mol % ratios specified in Table C.
The cationic lipids of the present invention and lipid OF-02 were evaluated with lipid nanoparticle formulation 1. MC3 and SM-102 were evaluated with lipid nanoparticle formulation 2, which is a typical formulation for those lipids.
In summary, lipid screening studies were conducted with female BALB/cJ mice 6-8 weeks of age (Jax #000651). Mice were dosed with 0.1 μg in 30 μL of LNPs by a single intramuscular (IM) injection into the gastrocnemius leg muscle. Blood samples were taken 6 and 24 hours post injection and hEPO levels were measured in the blood serum of the mice using an ELISA assay according to the manufacture's protocol (R&D systems, Cat #DEP-00). WO2022/099003 A1 also describes an in vivo assay for intramuscular administration (e.g. on page 46, paragraph [00206]).

Row | SMILES | hEPO 6 Hr Mean [ng/mL] | hEPO 24 Hr Mean [ng/mL]
1 | CCCCCCCC/C=C\CCCCCCCCN(CCCCCCCC(=O)OC(CCCCCCCC)CCCCCCCC)CCCCSSCCCCN1CCN(CCOC(=O)CCCN(CC(O)CCCCCCCCCC)CC(O)CCCCCCCCCC)CC1 (stereo not shown) [Compound 1] | 11 | 9.5
2 | CCCCCCCCCCCOC(=O)CCCCCN(CCCCCCCC(=O)OC(CCCCCCCC)CCCCCCCC)CCCCSSCCCCN1CCN(CCOC(=O)CCCN(CC(O)CCCCCCCCCC)CC(O)CCCCCCCCCC)CC1 (stereo not shown) [Compound 2] | 35.4 | 29.2
3 | CCCCCC/C=C\COC(=O)CCCCCCCN(CCCCCCCC(=O)OC(CCCCCCCC)CCCCCCCC)CCCCSSCCCCN1CCN(CCOC(=O)CCCN(CC(O)CCCCCCCCCC)CC(O)CCCCCCCCCC)CC1 (stereo not shown) [Compound 3] | 20.5 | 19.3
4 | CCCCC/C=C\C/C=C\CCCCCCCCN(CCCCCCCC(=O)OC(CCCCCCCC)CCCCCCCC)CCCCSSCCCCN1CCN(CCOC(=O)CCCN(CC(O)CCCCCCCCCC)CC(O)CCCCCCCCCC)CC1 (stereo not shown) [Compound 4] | 18.8 | 12.1
5 | CCCCCC/C=C\COC(=O)CCCCCC(O)CN(CCCCSSCCCCN1CCN(CCOC(=O)CCCN(CC(O)CCCCCCCCCC)CC(O)CCCCCCCCCC)CC1)CC(O)CCCCCC(=O)OC(CCCCCCCC)CCCCCCCC (stereo not shown) [Compound 5] | 35 | 18.7
6 | CCCCCCCC/C=C\CCCCCCC(O)CN(CCCCSSCCCCN1CCN(CCOC(=O)CCCN(CC(O)CCCCCCCCCC)CC(O)CCCCCCCCCC)CC1)CC(O)CCCCCC(=O)OC(CCCCCCCC)CCCCCCCC (stereo not shown) [Compound 6] | 34.7 | 18.4
7 | CCCCC/C=C\C/C=C\CCCCCCC(O)CN(CCCCSSCCCCN1CCN(CCOC(=O)CCCN(CC(O)CCCCCCCCCC)CC(O)CCCCCCCCCC)CC1)CC(O)CCCCCC(=O)OC(CCCCCCCC)CCCCCCCC (stereo not shown) [Compound 7] | 31.4 | 25.8
8 | CCCCCCCCCCCOC(=O)CCCC(O)CN(CCCCSSCCCCN1CCN(CCOC(=O)CCCN(CC(O)CCCCCCCCCC)CC(O)CCCCCCCCCC)CC1)CC(O)CCCCCC(=O)OC(CCCCCCCC)CCCCCCCC (stereo not shown) [Compound 8] | 41.8 | 33.3
9 | CCCCCCCCCCCOC(=O)CCCCCN(CCCCCCCC(=O)OC(CCCCCCCC)CCCCCCCC)CCCC(=O)OCCN1CCN(CCCCSSCCCN(CC(O)CCCCC(=O)OCC(CC)CC)CC(O)CCCCC(=O)OCC(CC)CC)CC1 (stereo not shown) [Compound 9] | 24.3 | 15.7
10 | CCCCCCCCCCCOC(=O)CCCCCN(CCCCCCCC(=O)OC(CCCCCCCC)CCCCCCCC)CCCC(=O)OCCN1CCN(CCCCSSCCCCN(CC(O)CCCCCC(=O)OC(CCCCCCCC)CCCCCCCC)CC2CCCC(=O)O2)CC1 (stereo not shown) [Compound 10] | 19.6 | 7.7
11 | CCCCCCCCC(CCCCCCCC)OC(=O)CCCCCC(O)CN(CCCC(=O)OCCN1CCN(CCCCSSCCCN(CC(O)CCCCC(=O)OCC(CC)CC)CC(O)CCCCC(=O)OCC(CC)CC)CC1)CC1CCCC(=O)O1 (stereo not shown) [Compound 11] | 18.7 | 10.1
12 | CCCCCCCCCCCOC(=O)CCCC(O)CN(CCCC(=O)OCCN1CCN(CCCCSSCCCN(CC(O)CCCCC(=O)OCC(CC)CC)CC(O)CCCCC(=O)OCC(CC)CC)CC1)CC(O)CCCCCC(=O)OC(CCCCCCCC)CCCCCCCC (stereo not shown) [Compound 12] | 37.4 | 21
13 | CCCCCCCCCCCOC(=O)CCCCCN(CCCCCCCC(=O)OC(CCCCCCCC)CCCCCCCC)CCCC(=O)OCCN1CCN(CCCCSSCCCCN(CC(O)CCCCCC(=O)OC(CCCCCCCC)CCCCCCCC)CC(O)CCCC(=O)OCCCCCCCCCCC)CC1 (stereo not shown) [Compound 13] | 29.5 | 13.8
14 | CCCCCCCCCCCOC(=O)CCCC(O)CN(CCCCSSCCCCN1CCN(CCOC(=O)CCCN(CC(O)CCCCCC(=O)OC(CCCCCCCC)CCCCCCCC)CC(O)CCCC(=O)OCCCCCCCCCCC)CC1)CC(O)CCCCCC(=O)OC(CCCCCCCC)CCCCCCCC (stereo not shown) [Compound 14] | 26.4 | 12.8
15 | CCCCCCCCCCC(O)CN(CCCC(=O)OCCN1CCN(CCCCSSCCCCN(CC(O)CCCCC(=O)OCC(CC)CC)CC(O)CCCCC(=O)OCC(CC)CC)CC1)CC(O)CCCCCCCCCC (stereo not shown) [Compound 15] | 36 | 22.8
16 | CCCCCCCCCCC(O)CN(CCCC(=O)OCCN1CCN(CCCCSSCCCN(CC(O)CCCCC(=O)OCC(CC)CC)CC(O)CCCCC(=O)OCC(CC)CC)CC1)CC(O)CCCCCCCCCC (stereo not shown) [Compound 16] | 32.4 | 18.7
17 | CCCCCCCCCCC(O)CN(CCCC(=O)OCCN1CCN(CCCCSSCCCCN(CC(O)CCCC(=O)OC(CC)CC)CC(O)CCCC(=O)OC(CC)CC)CC1)CC(O)CCCCCCCCCC (stereo not shown) [Compound 17] | 19.7 | 10.4
18 | CCCCCCCCCCC(O)CN(CCCC(=O)OCCN1CCN(CCCCSSCCCN(CC(O)CCCC(=O)OC(CC)CC)CC(O)CCCC(=O)OC(CC)CC)CC1)CC(O)CCCCCCCCCC (stereo not shown) [Compound 18] | 18.2 | 9.2
19 | CCCCC/C=C\C/C=C\CCCCCCCCC(CCCCCCCC/C=C\C/C=C\CCCCC)OC(=O)CCCN(C)C [MC3, reference compound] | 3.9 | 2.9
20 | CCCCCCCCCCCOC(=O)CCCCCN(CCO)CCCCCCCC(=O)OC(CCCCCCCC)CCCCCCCC [SM102, SM-102, reference compound] | 12.5 | 13.3
